According to US20210121527A1, “METHODS OF TREATING MINIMAL RESIDUAL CANCER” (ICAHN SCHOOL OF MEDICINE AT MOUNT SINAI, priority 2018, published 2021):

Experiments:
[1] = test system: Braf-mutant melanoma WM35 cells; assay: WM35 melanoma cell viability in 2D and 3D culture, GADD34 western blot; assay type: cell-based; conditions: after persistent treatment with Abemaciclib
Method: FIGS. 12A-12G show proposed mono or combination therapies that include the use of LY4 and experiments showing that the treatment of melanoma cells with the CDK4/6 inhibitor Abemaciclib in combination with LY4 differentially affects in vitro cell viability in 2D and 3D culture. FIG. 12A is a schematic illustration of the rationale for the combination of Abemaciclib and LY4. FIG. 12B is a bar graph showing the results of an in vitro treatment of Braf-mutant melanoma cells (WM35) with 0 nM, 10 nM, or 50 nM Abemaciclib for 1 week followed by 48 hour treatment with 2 μM LY4. FIG. 12C includes images of cells stained with DAPI following pre-treatment with Abemaciclib for 1 week, followed by treatment with 2 μM LY4. 5,000 cells were seeded on matrigel. In FIGS. 12D-12E, WM35 melanoma cells were pre-treated with Abemaciclib for 5 weeks, followed by treatment with LY4 in complete media and Abemaciclib. Cells were stained with Trypan blue to identify viable cells. FIG. 12D is a graph showing Abemaciclib sensitive cells. FIG. 12E is a graph showing Abemaciclib-resistant cells. FIG. 12F show images of cells stained with DAPI following pre-treatment with Abemaciclib for 5 weeks and co-treatment with 2 μM LY4 and Abemaciclib. 1,000 cells were seeded on matrigel. […]

[2] = Tolerability in MMTV-HER2 female mice; assay type: in vivo, mouse
Method: (§1) Mice, tumor growth, and tissue processing: The FVB/N-Tg (MMTVneu) mouse strain was obtained from Jackson Laboratories (Sacramento, Calif.). […] Before being used in any experiment, females underwent one round of pregnancy and at least two weeks of no lactation after weaning. Females between 24-32 weeks of age were injected intraperitoneally with vehicle (90% corn oil, 10% ethanol) or LY4 (50 mpk) daily, for two weeks. For the combination treatment, females 24-32 weeks of age were treated daily by oral gavage with Abemaciclib (50 mpk) for 4 weeks before starting the treatment described earlier with LY4. Tumor volumes were measured using the formula (Dxd^2)/2, where D is the longest and d is the shortest diameter. For CTC count, animals were anesthetized and whole blood was extracted by cardiac puncture. Mammary glands, lungs, and tumors were collected and fixed in 10% buffered formalin overnight before paraffin embedding. The bone marrow from the two lower limbs was flushed with a 26 G needle and further processed by Ficoll density gradient centrifugation. For CTC as well as for DTC detection in bone marrow, tissues were depleted of mature hematopoietic cells by anti-mouse antibody-labeled magnetic bead separation (Miltenyi Biotec, San Diego, Calif.) before fixation in formalin for 20 minutes at 4° C.

[3] = target: T1, PERK (Mus musculus, UniProt Q9Z2B5); assay: IHC of P-PERK and P-eIF2α in tissues of treated MMTV-HER2 mice; assay type: in vivo; conditions: 50 mpk i.p. daily, two weeks
T1 construct: from tissue; host or cells: mammary gland and pancreas sections of MMTV-HER2 (FVB/N-Tg(MMTVneu)) female mice
T1 sequence (Q9Z2B5 29-1114): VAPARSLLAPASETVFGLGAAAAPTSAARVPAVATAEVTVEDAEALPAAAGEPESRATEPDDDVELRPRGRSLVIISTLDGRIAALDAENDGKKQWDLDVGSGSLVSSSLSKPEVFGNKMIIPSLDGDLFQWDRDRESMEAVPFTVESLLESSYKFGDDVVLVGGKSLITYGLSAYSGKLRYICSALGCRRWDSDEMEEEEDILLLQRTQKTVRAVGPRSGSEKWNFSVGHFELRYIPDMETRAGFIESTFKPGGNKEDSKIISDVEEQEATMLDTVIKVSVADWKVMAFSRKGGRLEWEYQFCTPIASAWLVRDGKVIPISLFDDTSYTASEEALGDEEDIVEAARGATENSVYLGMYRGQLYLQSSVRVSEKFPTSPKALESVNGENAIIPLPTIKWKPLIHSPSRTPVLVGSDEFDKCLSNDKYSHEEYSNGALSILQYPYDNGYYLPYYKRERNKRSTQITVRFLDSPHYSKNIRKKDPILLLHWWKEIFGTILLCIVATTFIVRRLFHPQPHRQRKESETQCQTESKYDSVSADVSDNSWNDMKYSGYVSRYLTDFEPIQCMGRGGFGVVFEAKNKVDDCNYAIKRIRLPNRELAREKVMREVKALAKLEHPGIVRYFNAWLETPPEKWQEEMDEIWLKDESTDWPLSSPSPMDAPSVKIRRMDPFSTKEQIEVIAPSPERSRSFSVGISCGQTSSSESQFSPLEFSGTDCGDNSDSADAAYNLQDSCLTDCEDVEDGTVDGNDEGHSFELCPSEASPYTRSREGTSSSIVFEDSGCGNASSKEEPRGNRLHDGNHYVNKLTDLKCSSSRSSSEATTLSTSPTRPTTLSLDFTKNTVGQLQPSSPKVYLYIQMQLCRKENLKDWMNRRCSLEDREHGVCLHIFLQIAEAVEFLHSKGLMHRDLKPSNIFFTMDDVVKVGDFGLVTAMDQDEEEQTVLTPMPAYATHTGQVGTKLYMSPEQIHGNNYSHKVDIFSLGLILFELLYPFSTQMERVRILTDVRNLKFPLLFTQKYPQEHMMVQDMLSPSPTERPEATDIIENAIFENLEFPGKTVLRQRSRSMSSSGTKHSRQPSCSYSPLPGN
Method: as §1, with “C. […]” for “C.”

[4] = test system: MCF10A-HER2 cells; assay: Cell viability dose-response (Cell Titer Blue) with or without thapsigargin; assay type: cell-based; conditions: Homo sapiens, 48 hours, absence or presence of thapsigargin 2 nM, dashed line of FIG. 2D
Method: Reagents, cell culture, and treatments: EGF was obtained from PeproTech (Rocky Hill, N.J.) and used at 100 ng/ml. Thapsigargin was from Sigma (St. Louis, Mo.) and used at 2 nM. The ZR75.1-H2B-Dendra2 cell line was generated by stable transfection of the H2B-Dendra2 plasmid (Gurskaya et al., “Engineering of a Monomeric Green-to-Red Photoactivatable Fluorescent Protein Induced by Blue Light,” Nat. Biotechnol. 24:461-465 (2006), which is hereby incorporated by reference in its entirety). For 3D cultures, MCF10A-HER2, SKBR3, and ZR75.1-H2B-Dendra2 cells were plated in growth factor-reduced Matrigel (Corning, Corning, N.Y.) and grown as described previously (Avivar-Valderas et al., “Regulation of Autophagy during ECM Detachment is Linked to a Selective Inhibition of mTORC1 by PERK,” Oncogene 32(41):4932-40 (2013), which is hereby incorporated by reference in its entirety). When referring to “low density,” 3,500 cells/8-well were seeded, and for “high density” 20,000 cells/8-well. Treatments with vehicle (DMSO) or LY4 (2 μM) were replaced every 24 hours for 2D and every 48 hours for 3D cultures.

[5] = test system: MMTV-HER2 mammary glands; assay: Mammary gland whole mount and histology of early lesions in MMTV-HER2 mice; assay type: in vivo, mouse; conditions: 50 mpk, two weeks
Method: as §1
Mammary gland whole mount staining. Mammary glands fixed in 10% buffered formalin were incubated in Carmine Alum stain (Carmine 0.2%, Aluminum potassium sulfate 0.5%) (Sigma, St. Louis, Mo.) for 2 days. Then, they were dehydrated and transferred to methyl salicylate solution before imaging using a stereomicroscope.
The scoring for P-HER2 levels is explained in FIG. 10A. For the scoring of CK8/18 and SMA in mammary gland ducts, 20 low magnification fields were evaluated per animal for the expression of CK8/18 as negative (0), low (1), or high (2) and the same for SMA and the sum of the two scores was considered as the final score (from 0 to 4).

## Cc1cc(NC(=O)[C@H](O)c2cc(F)cc(F)c2)ccc1-c1cnc(N)c(C(=O)NC(C)C)c1 [LY4, 2-amino-5-[4-[[(2R)-2-(3,5-difluorophenyl)-2-hydroxy-acetyl]amino]-2-methyl-phenyl]-N-isopropyl-pyridine-3-carboxamide]
[1]
  viability of Abemaciclib resistant WM35 cells, 3D: additive effect on decreasing viability in 3D cell culture
[2]; 50 mpk i.p. daily, two weeks
  bone marrow cell homeostasis and peripheral blood white cells (total cell counts): no effect on total cell counts
  tolerability, body weight: well tolerated, with no significant changes in body weight
[2]; doses of LY4 used, non-tumor or cancer bearing mice
  glucose levels, blood cell counts, drinking and feeding behavior: did not significantly affect glucose levels, bone marrow, or peripheral blood cell counts, drinking and feeding behavior
[3]
  P-PERK and P-eIF2α levels in mammary gland ducts and pancreatic tissue: significant decrease in P-PERK and P-eIF2α levels
[4]
  IC50: ~9 nM
[5]
  cytokeratin 8/18 expression in the luminal layer of mammary ducts: increased expression of cytokeratin 8/18 in the luminal layer
  number of occluded hyperplasias and DCIS-like lesions: reduced to less than half of that in vehicle-treated animals
[5]; around 20% in control females
  hollow lumen mammary gland ducts, share of structures: more than 60%
